Assays:
[1] = system: Mouse leukemia P-388; test: Survival of mice given mouse leukemia P-388; assay type: in vivo, DBA/2 mouse; details: P-388, single dose 10 mg/kg intraperitoneal
Procedure: (§1) (1) Mouse leukemia P-388 (1.1×10^6 cells/mouse) was intraperitoneally administered to a 7-weeks old female DBA/2 mouse. Immediately after the administration, a single dose of 10 mg/kg dipropionylcyclopentenone was intraperitoneally administered. On the other hand, saline was intraperitoneally administered to a control group in a similar manner. Survival number of mice, average days of survival and prolongation rate were calculated for 2 groups each consisting of 8 mice.

[2] = system: Meth A tumor cells; test: Survival of mice given Meth A tumor cells, single dose; assay type: in vivo, BALB/c mouse; details: single dose 10 mg/kg intraperitoneal
Procedure: as §1
Similarly, examination was carried out using a system of Meth A tumor cells: BALB/c mouse. As a result, the average days of survival were 13.4 days for the control group. The average days of survival were 16.9 days for the group administered with dipropionylcyclopentenone.

[3] = system: adhesion between vascular endothelial cells and HL-60 cells; test: Adhesion of HL-60 cells to TNF-α-stimulated vascular endothelial cells; assay type: cell-based, Human; details: for Adhesion rate: TNF-α-stimulated endothelial cells
Procedure: Human vascular endothelial cells (sold by Sanko Junyaku) suspended in RPMI-1640 medium (Gibco) containing 10% FCS (HyClone) at a concentration of 1×10^5 cells/ml. 100 μl/well of the suspension was seeded into a 96-well microtiter plate.
100 U/ml of human recombinant TNF-α (Promega) was added to monolayer of vascular endothelial cells after incubation at 37° C. for 2 days in a 5% CO2 incubator. The plate was incubated 37° C. for 6 hours in a 5% CO2 incubator to prepare vascular endothelial cells stimulated with TNF-α.
On the other hand, cyclopentenone, GM or dipropionylcyclopentenone at a varying concentration was added to HL-60 cells suspended in RPMI-1640 medium containing 10% FCS at a concentration of 1×10^6 cells/ml. The cells were cultured at 37° C. for 3 hours in a 5% CO2 incubator. After cultivation, 5 μM of 5(-and-6)-carboxyfluorescein diacetate, succinimide ester (Molecular Probe) as a fluorescent agent was added thereto and reacted at 37° C. for 10 minutes. The cells were washed twice with RPMI-1640 medium and suspended in RPMI-1640 medium containing 10% FCS to prepare a suspension of fluorescence-labeled HL-60 cells at a concentration of 1×10^6 cells/ml.
100 μl/well of the fluorescence-labeled HL-60 cells were overlaid onto the vascular endothelial cells stimulated with TNF-α. Cyclopentenone, GM or dipropionylcyclopentenone at a varying concentration was added thereto. The plate was incubated at 37° C. for 20 minutes in a 5% CO2 incubator for adhesion reaction between vascular endothelial cells and HL-60 cells.
After the adhesion reaction, the plate was washed to remove non-adhesive cells. 1% Triton X (Nacalai Tesque) was added thereto to destroy adhesive cells. The fluorescence intensity was measured using filters for 485/22 nm (excitation) and 530/25 nm (emission).
The adhesion rate which represents the ratio of cells adhered to vascular endothelial cells was determined defining the fluorescence intensity for 1×10^5 fluorescence-labeled cells as 100%.

[4] = system: mixed spleen lymphocytes (BALB/c and C57BL/6); test: Mixed lymphocyte reaction, 3H-thymidine uptake; assay type: cell-based, mouse; details: 1 μM
Procedure: (2) Spleens were taken out from a BALB/c mouse (male, 6 weeks old, purchased from Japan SLC) and a C57BL/6 mouse (male, 6 weeks old, purchased from Japan SLC) and spleen lymphocytes were obtained according to the method as described in Example 11-(1). The concentration of each of the cell suspensions was adjusted to 2×10^6 cell/ml, 100 μl portions from respective suspensions were mixed together and seeded into a 96-well microtiter plate. Dipropionylcyclopentenone at a varying concentration was added to the wells other than the control well, and the plate was incubated at 37° C. for 4 days in a CO2 incubator. After incubation, 1 μCi of ^3H-thymidine was added to each well, and the plate was incubated for additional 1 day. The uptake into cells was measured using a liquid scintillation counter.
FIG. 8 illustrates the relationship between the concentration of dipropionylcyclopentenone and the amount of ^3H-thymidine uptake. The horizontal axis represents the dipropionylcyclopentenone concentration (μM) and the vertical axis represents ^3H-thymidine uptake (CPM). The open bar represents the ^3H-thymidine uptake when cells from one of the lines were used independently. The shaded bar represents the ^3H-thymidine uptake when cells from both of the lines were mixed together.

[5] = system: 70-kDa heat shock protein; test: Induction of 70-kDa heat shock protein in HL-60 cells (Western blot); assay type: cell-based; design: key to Degree of induction of 70-kDa heat shock protein: − means that no induction was observed; ± means that a slight induction was observed; + represents the induction level; ++: Increased number of + means increased induction; +++: Increased number of + means increased induction; details: HL-60, 6 hours
Procedure: (1) 5 ml of RPMI 1640 medium containing 10% fetal calf serum and HL-60 (ATCC CCL-240) cells at a concentration of 2×10^5 cells/ml was placed in each well of a 6-well plate. The plate was incubated at 37° C. for 24 hours in the presence of 5% CO2. Dipropionylcyclopentenone, diisobutyrylcyclopentenone or di-2-hexenoylcyclopentenone at a final concentration of 0, 0.63, 1.3, 2.5, 5, 10 or 20 μM was then added thereto. The incubation was continued for additional 6 hours.
After incubation, the cell number was counted. The cells were harvested by centrifugation, washed with PBS to prepare cells treated with one of the samples. Cells that were cultured in the same manner after heated at 45° C. for 10 minutes were also prepared.
These treated cells were used for SDS-PAGE according to the method as described in Molecular Cloning [Cold Spring Harbor Laboratory Press (1989)]. The treated cells were suspended in SDS-PAGE Sample buffer at a concentration of 2.5×10^6 cells/ml. The cell suspensions were treated at 100° C. for 10 minutes. 5 μl each of the cell suspensions was applied to two SDS-PAGE gels (5% stacking gel, 10% separation gel) and electrophoresed. One of the gels was subjected to Coomassie staining. The other gel was blotted onto a polyvinylidene difluoride transfer membrane (Immobilon™, Millipore, Cat. #IPVH000-10). The membrane was blocked at 4° C. overnight using Block Ace (Dainippon Pharmaceutical, Cat. #UK-B25).
The blocked membrane was reacted with a monoclonal antibody HSP72/73(Ab-1) (Oncogene Research Products, Cat. #HSP01), which specifically reacts with heat-inducible 70-kDa heat shock protein. The membrane was washed with TBS containing 0.05% Tween 20 followed by TBS. The membrane was then reacted with a peroxidase-conjugated secondary antibody HRP-Rabbit Anti-Mouse IgG (H+L) (Zymed Laboratories, Inc., Cat. #61-6520), and then washed as described above. The membrane reacted with the primary and secondary antibodies was reacted with a chemiluminol reagent Renaissance™ (Dupont NEN, Cat. #NEL-100). The membrane was then exposed to an X-ray film to confirm the induction of 70-kDa heat shock protein.

CCC(=O)OC1C=CC(=O)C1OC(=O)CC (stereo not shown)
Average days of survival [1]: 13.9 days | Prolongation rate [1]: 137.0% | Average days of survival [2]: 16.9 days | Prolongation rate [2]: 126.2% | Adhesion rate ([3]; 0.1 μM): 49.2% | Adhesion rate ([3]; 1 μM): 35.1% | Adhesion rate ([3]; 10 μM): 15.3% | Adhesion rate ([3]; 100 μM): 15.5% | Suppression of TNF-α-induced increase in adhesion rate (statement) ([3]; 10^−7 to 10^−4 M, dose-dependent): suppressed | Inhibition of mixed lymphocyte reaction (FIG. 8) [4]: almost completely inhibited | Degree of induction of 70-kDa heat shock protein ([5]; 0.63 μM): − | Degree of induction of 70-kDa heat shock protein ([5]; 1.3 μM): ± | Degree of induction of 70-kDa heat shock protein ([5]; 2.5 μM): + | Degree of induction of 70-kDa heat shock protein ([5]; 5 μM): +++ | Degree of induction of 70-kDa heat shock protein ([5]; 10 μM): ++ | Degree of induction of 70-kDa heat shock protein ([5]; 20 μM): ++

— patent publication US6548543B1, “Remedies or preventives containing cyclopentenone compounds as the active ingredient” (Takara Shuzo Co., Ltd., priority 1998, dated 2003)
